Results from patent publication US5707559A, “Chemiluminescent 1,2-dioxetane compounds” (priority 1987, dated 1998).

What was measured:
[1] = Triggering the chemiluminescence of hydroxy-substituted dioxetanes with base; settings: for base-induced chemiluminescence: base-induced decomposition, room temperature (2b: potassium t-butoxide in o-xylene, 25° C.)
Protocol: (§1) A solution of the dioxetane in a suitable solvent (e.g. o-xylene) was placed in the reaction vial as described above. The vial was placed in the sample holder which was maintained at a temperature such that thermal decomposition of the dioxetane was negligible. Instrument parameters were selected as above and data collection started. A solution of the releasing agent (e.g. base or fluoride) preferably in the reaction solvent was injected by syringe into the rapidly stirred dioxetane solution. The volume of releasing agent added was generally less than 5% of the total volume so that temperature fluctuation of the sample during the time course of the decay was minimal. The pseudo-first order decay was monitored for at least three half-lives.
1. Triggering the Chemiluminescence of Hydroxy-Substituted Dioxetanes with Base: Potassium tert-butoxide induced decomposition of 2b. […].

[2] = Thermal decomposition of dioxetanes monitored by decay of chemiluminescence (activation parameters in xylene); format: physicochemical
Protocol: Rates of dioxetane decomposition were monitored by the decay of chemiluminescence of aerated solutions. A cylindrical Pyrex vial equipped with magnet stir bar was filled with 3-4 mL of the reaction solvent, sealed with a Teflon-lined screw cap and placed in the thermostatted sample block of the chemiluminescence-measuring apparatus (Black Box). Temperature control was provided by an external circulating water bath. Appropriate values for the instrument gain and optical slit size were selected. […]. The vial was sealed with a Teflon-lined screw cap to prevent evaporation when high temperatures were used. Measurement of the signal was begun by opening the shutter. The chemiluminescent decay was generally recorded for at least three half-lives. Calculation of the first-order rate constant, k, from the In(Intensity) vs. time data was performed by a computer program utilizing a standard least-squares treatment. The correlation coefficient, r, was typically at least 0.999 and varied less than 5% between replicate samples. The observed rate was not measurably concentration dependent.
Activation parameters for decomposition of the dioxetanes were calculated from plots of In k vs. 1/T (Arrhenius eq.) or In k/t vs. 1/T (Eyring eq.) by a standard least-squares linear regression analysis.
Activation Energies for Decomposition of Dioxetanes 2 in Xylene.

[3] = for fluoride induced chemiluminescence in polar aprotic solvents: polar aprotic solvents such as acetonitrile
Protocol: as §1
2. Triggering the Chemiluminescence of Silyloxy-Substituted Dioxetanes with Fluorde Ion: Fluoride ion induced decomposition of 2c. […]. […]. A spectrum of the chemiluminescence obtained from the fluoride triggering of 2c in 1:1 aqueous/2-methoxyethanol is shown in FIG. 1 with the solid line. The fluorescence of the cleavage product (methyl 6-hydroxy-2-naphthoate) from the dioxetane is also shown with the dashed line for comparison.

[4] = Triggering properties of further prepared dioxetanes (general statement)
[5] = system: Aryl esterase (carboxylic ester hydrolase) from porcine liver; experiment: Enzymatic triggering of chemiluminescence with aryl esterase; format: biochemical; settings: for effect of added competing esterase substrate on light intensity: […] solution added at maximum emission of 2e, pH 7.6 phosphate buffer, 37° C.
Protocol: (§2) A secondary stock solution of the acetate-protected dioxetane 2e was made by evaporating an aliquot of the methylene chloride stock equivalent to 10 micromoles of dioxetane and dissolving in 5.0 mL of 2-methoxyethanol to give a final concentration of 0.002M. […] Buffer solutions prepared in distilled water were 0.05M phosphate pH 7.6 and 8.0, 0.02M Tris (tris-hydroxymethylaminomethane maleate) pH 7.6, and pH 9.0 phosphate/borate buffer. Aryl esterase (also called carboxylic ester hydrolase (P-5221)) from porcine liver was purchased from Sigma Chemical Co. as a suspension of 11 mg of protein per mL in 3.2M (NH4)2 SO4 solution pH 8.0. Each mg of protein is equivalent to 260 Units, where 1 Unit is defined as the amount which will hydrolyze 1 micromole of ethyl butyrate in 1 minute at pH 8.0, 25° C. […] Injection of 1 μL of (0.26 units) of aryl esterase to the stirred solution caused a chemiluminescent signal to appear. The intensity reached a maximum at about 3 minutes and decayed over a 30 minute period.
3.) When distilled water was substituted for the Tris buffer, no chemiluminescence signal was observed, but on adding Tris buffer to this solution light emission similar to that above was produced. […] Addition of untreated enzyme preparation to this solution again produced light. […] The emission could be totally extinguished by addition of sufficient SDS. The decrease in light emission is not due to photophysical quenching of the excited state since thermal decomposition in the same solvent system at elevated temperatures results in readily detectable chemiluminescence.
This type of behavior explains the effect of the addition of the known esterase substrates α-naphthyl acetate and β-naphthyl acetate. […] A solution of 25 μL of the dioxetane stock (0.002M) in 3 mL of pH 7.6 phosphate buffer maintained at 37° C. was treated with 5 μL of the enzyme to initiate the chemiluminescence. At the point of maximum emission […] of 0.011M solution of either α- or β-naphthyl acetate were added.

[6] = format: physicochemical; settings: 0.002M in 2-methoxyethanol, stored at 0° C.
Protocol: as §2
Stability of Enzyme and Dioxetane to Reaction Conditions. Many dioxetanes are known to be destroyed via a non-luminescent pathway by acid catalyzed processes in protic solvents. Similarly, amines are also known to cause the catalytic destruction of dioxetanes via an electron-transfer process. […]

[7] = target: T1, Acetylcholinesterase from human erythrocytes (Homo sapiens, UniProt P22303); experiment: Enzymatic triggering of chemiluminescence with acetylcholinesterase; format: biochemical; settings: 0.05M phosphate buffer, pH 8.0, 37.0° C.
T1 construct: purchased Sigma Chemical Co. C-3389; host or cells: human erythrocytes
Description: Acetylcholinesterase, an enzyme of considerable biological significance, hydrolyzes acetylcholine to choline and acetic acid under physiological conditions. It was of interest to determine whether this enzyme would also initiate the chemiluminescent decomposition of the acetyl-protected dioxetane 2e by removal of the acetyl group. Acetylcholinesterase (C-3389) from human erythrocytes was purchased from Sigma Chemical Co. as a lyophilized powder containing phosphate buffer salts. […]. Addition of more dioxetane during this period generated more light.

[8] = system: alkaline phosphatase from Bovine Intestinal Mucosa; experiment: Enzymatic triggering of chemiluminescence with alkaline phosphatase (Type VII-S); format: biochemical; settings: 2-amino-2-methyl-1-propanol buffer pH 10.3, 1.5M, 37° C., 10 μL enzyme suspension
Protocol: A cuvette containing 3 mL of a buffer solution of 2-amino-2-methyl-l-propanol (Sigma Chemical Co., pH=10.3, 1.5M) was placed in the black box at 37° C. A portion (200 μL) of the dioxetane stock solution (6d in CH2 Cl2) was added to this buffer solution. Subsequent addition of 10 μL of an alkaline phosphatase suspension [Sigma, Type VII-S from Bovine Intestinal Mucosa, suspension in 3.2M (NH4)2 SO4 ] gave rise to chemiluminescence over a period of approximately 2-3 min indicating the enzymatic triggering of the dioxetane.

[9] = 25° C.; cited from earlier work
[10] = 1 μL (0.26 units) aryl esterase, pH 7.6 Tris buffer, 25° C.

T1 sequence (P22303 other isoform, or with tags, fused parts or gaps): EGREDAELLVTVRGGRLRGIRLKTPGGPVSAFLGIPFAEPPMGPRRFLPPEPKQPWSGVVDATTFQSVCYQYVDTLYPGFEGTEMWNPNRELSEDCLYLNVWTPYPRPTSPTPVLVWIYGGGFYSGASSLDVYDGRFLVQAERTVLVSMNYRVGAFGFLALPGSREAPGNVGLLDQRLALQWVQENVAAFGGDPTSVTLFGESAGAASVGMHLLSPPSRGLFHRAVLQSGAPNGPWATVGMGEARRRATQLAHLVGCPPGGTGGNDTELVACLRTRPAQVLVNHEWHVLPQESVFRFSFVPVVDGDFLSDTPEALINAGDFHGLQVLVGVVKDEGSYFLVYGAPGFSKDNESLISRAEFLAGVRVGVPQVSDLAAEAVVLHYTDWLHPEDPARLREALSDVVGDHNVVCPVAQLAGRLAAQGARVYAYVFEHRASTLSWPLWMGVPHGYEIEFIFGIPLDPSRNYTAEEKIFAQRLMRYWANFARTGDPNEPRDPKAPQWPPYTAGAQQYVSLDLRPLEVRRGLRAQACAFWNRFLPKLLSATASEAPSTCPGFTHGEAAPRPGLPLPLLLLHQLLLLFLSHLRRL

## COC1(c2ccc3cc(O)ccc3c2)OOC12C1CC3CC(C1)CC2C3 (stereo not shown) [Dioxetane 2b, 4-(6-Hydroxy-2-naphthyl)-4-methoxyspiro[1,2-dioxetane-3,2'-adamantane]]
[1]
  base-induced chemiluminescence: intense blue chemiluminescence
[1]; methanol with KOH as base, or o-xylene with n-BuLi as base
  base-induced chemiluminescence with other bases: bright blue chemiluminescence with similar decay rates

## COC1(c2ccc3cc(O[Si](C)(C)C(C)(C)C)ccc3c2)OOC12C1CC3CC(C1)CC2C3 (stereo not shown) [Dioxetane 2c]
[2]; decomposition in xylene
  Ea (activation energy for decomposition): 27.0
[3]; 10^-4 M dioxetane, 0.01M tetrabutylammonium fluoride in 2-methoxyethanol, room temperature, pseudo-first order, 100 µM
  half-life of chemiluminescence decay, fluoride ion induced: about 20 minutes
[3]; tetrabutylammonium fluoride in 2-methoxyethanol
  fluoride induced chemiluminescence: Blue chemiluminescence was produced

## COC1(c2ccc3cc(O[Si](c4ccccc4)(c4ccccc4)C(C)(C)C)ccc3c2)OOC12C1CC3CC(C1)CC2C3 (stereo not shown) [Dioxetane 2d]
[3]
  fluoride induced chemiluminescence in polar aprotic solvents: bright chemiluminescence
[4]
  triggering properties: triggering properties similar to dioxetanes 2a-c and 2e

## COC1(c2ccc3cc(OC(C)=O)ccc3c2)OOC12C1CC3CC(C1)CC2C3 (stereo not shown) [Dioxetane 2e, 4-(6-Acetoxy-2-naphthyl)-4-methoxyspiro[1,2-dioxetane-3,2'-adamantane]]
[2]; aliquot injected into 3 mL of o-xylene at 95° C.
  duration of thermal chemiluminescence: persisted for several hours
[5]; [10]
  period over which chemiluminescence decayed: 30 min
  time at which chemiluminescence intensity reached a maximum: about 3 minutes
[5]; 1 μL enzyme in Tris buffer at 25, 37 and 50° C.
  maximum light intensity IMAX versus temperature: increased with increasing temperature
[5]; 3 mL Tris buffer containing 5 μL of 3 M (NH4)2SO4, no enzyme, 25° C.
  chemiluminescence with enzyme medium only: produced no chemiluminescence
[5]; 150 μL (0.3 μmol) dioxetane stock in 3.0 mL pH 7.6 Tris buffer, 25° C., before enzyme
  chemiluminescence signal without enzyme: no chemiluminescence signal was detected
[5]; enzyme heated to 90° C. in Tris buffer and cooled to 25° C.
  chemiluminescence with denatured enzyme: resulted in no chemiluminescence
[6]
  stability of stock solution on storage: stable indefinitely
[7]
  duration of light emission: 20 s

## Oc1ccc2c(c1)C1(OOC13C1CC4CC(C1)CC3C4)c1ccccc1-2 (stereo not shown) [Dioxetane 4a]
[1]
  base-induced chemiluminescence: produced chemiluminescence at room temperature
[4]
  triggering properties: triggering properties similar to dioxetanes 2a-c and 2e

## CC(C)(C)[Si](C)(C)Oc1ccc2c(c1)C1(OOC13C1CC4CC(C1)CC3C4)c1ccccc1-2 (stereo not shown) [Dioxetane 4b, Dispiro[adamantane-2,3'-[1,2]dioxetane-4',9"-(2-tert-butyldimethylsilyloxy-9-fluorene)]]
[3]
  fluoride induced chemiluminescence in polar aprotic solvents: bright chemiluminescence

## Oc1ccc2c(c1)Oc1ccccc1C21OOC12C1CC3CC(C1)CC2C3 (stereo not shown) [Dioxetane 6a]
[1]
  base-induced chemiluminescence: produced chemiluminescence at room temperature
[4]
  triggering properties: triggering properties similar to dioxetanes 2a-c and 2e

## CC(C)(C)[Si](C)(C)Oc1ccc2c(c1)Oc1ccccc1C21OOC12C1CC3CC(C1)CC2C3 (stereo not shown) [Dioxetane 6b]
[3]
  fluoride induced chemiluminescence in polar aprotic solvents: bright chemiluminescence
[4]
  triggering properties: triggering properties similar to dioxetanes 2a-c and 2e

## CC(=O)Oc1ccc2c(c1)Oc1ccccc1C21OOC12C1CC3CC(C1)CC2C3 (stereo not shown) [Dioxetane 6c]
[4]
  triggering properties: triggering properties similar to dioxetanes 2a-c and 2e

## O=P(O)(O)Oc1ccc2c(c1)Oc1ccccc1C21OOC12C1CC3CC(C1)CC2C3 (stereo not shown) [Dioxetane 6d, Dispiro[adamantane-2,3'-[1,2]dioxetane-4',9"-(3-phosphate-9H-xanthene]]
[8]
  period of chemiluminescence after enzyme addition: 2 to 3 min

## COC1(c2cccc(O)c2)OOC12C1CC3CC(C1)CC2C3 (stereo not shown) [Dioxetane 8a]
[1]
  base-induced chemiluminescence: produced chemiluminescence at room temperature

## COC1(c2cccc(O[Si](C)(C)C(C)(C)C)c2)OOC12C1CC3CC(C1)CC2C3 (stereo not shown) [Dioxetane 8b, 4-(3-tert-Butyldimethylsilyloxyphenyl)-4-methoxyspiro[1,2-dioxetane-3,2'-adamantane]]
[3]
  fluoride induced chemiluminescence in polar aprotic solvents: bright chemiluminescence

## Oc1ccc(C23OCCOC2(c2ccccc2)OO3)cc1 (stereo not shown) [deprotonated dioxetane (X=O^-)]
[9]
  decomposition rate relative to protonated form (X=OH): 5.7×10^6 times faster

## CCCCCCCCCCCCOS(=O)(=O)[O-].[Na+] [sodium lauryl sulfate (SDS), sodium lauryl sulfate, reference compound]
[5]; added at maximum emission of 2e, Tris buffer, 1.5 μL enzyme
  effect of enzyme inhibitor on light emission: irreversible decrease in the intensity

## CC(=O)Oc1cccc2ccccc12 [α-naphthyl acetate, reference compound]
[5]
  effect of added competing esterase substrate on light intensity: rapid decrease in light intensity

## CC(=O)Oc1ccc2ccccc2c1 [β-naphthyl acetate, reference compound]
[5]
  effect of added competing esterase substrate on light intensity: rapid decrease in light intensity
